Reference: US8937068B2, “Pyridopyrazine derivatives and their use” (Zentaris GmbH, priority 2005, dated 2015)

What was measured:
Erk2 = Erk2 (Homo sapiens, UniProt P28482); assay: Cell-free kinase assay (ALPHA technology), Erk2; type: biochemical; conditions: 10 μM ATP
Description: The inhibitory effect of the compounds according to the invention was tested on various serine/threonine, tyrosine and lipid kinases in enzymatic assays. […] The commercial kinase proteins (Proqinase, Upstate) were used as recombinant fusion proteins with GST (glutathion-S-transferase) or His-Tag. Depending on the type of substrate, the various kinase reactions were quantified by means of suitable ALPHA™ beads (Perkin-Elmer). The substance testing is described in detail hereinafter for the Erk assay. […] a) MAPK-ALPHAs (e.g. […] The kinase reaction was then stopped by adding ALPHA bead mixes (10 μg/ml, #6760603/Perkin-Elmer) pre-incubated with 1 nM GST:Grp1 fusion protein (Upstate) and 15 nM biotinylated PIP3 (#C-39B6/Echelon) in 50 mM Hepes, 50 mM NaCl, 50 mM EDTA and 0.1% BSA and left to stand overnight. The fluorescence was detected the following morning in a Fusion™^aα-system (Perkin-Elmer). […] Eight determinations were made for each control and two for the substance samples. […] The IC50 values were determined using GraphPadPrism.

PI3Kalpha = PI3Kalpha (Homo sapiens (Human), UniProt P42336); assay: Cell-free kinase assay (ALPHA technology), PI3Kalpha; type: biochemical; conditions: 100 μM ATP
PI3Kalpha, sequence (P42336 whole entry, the tested form may be a part): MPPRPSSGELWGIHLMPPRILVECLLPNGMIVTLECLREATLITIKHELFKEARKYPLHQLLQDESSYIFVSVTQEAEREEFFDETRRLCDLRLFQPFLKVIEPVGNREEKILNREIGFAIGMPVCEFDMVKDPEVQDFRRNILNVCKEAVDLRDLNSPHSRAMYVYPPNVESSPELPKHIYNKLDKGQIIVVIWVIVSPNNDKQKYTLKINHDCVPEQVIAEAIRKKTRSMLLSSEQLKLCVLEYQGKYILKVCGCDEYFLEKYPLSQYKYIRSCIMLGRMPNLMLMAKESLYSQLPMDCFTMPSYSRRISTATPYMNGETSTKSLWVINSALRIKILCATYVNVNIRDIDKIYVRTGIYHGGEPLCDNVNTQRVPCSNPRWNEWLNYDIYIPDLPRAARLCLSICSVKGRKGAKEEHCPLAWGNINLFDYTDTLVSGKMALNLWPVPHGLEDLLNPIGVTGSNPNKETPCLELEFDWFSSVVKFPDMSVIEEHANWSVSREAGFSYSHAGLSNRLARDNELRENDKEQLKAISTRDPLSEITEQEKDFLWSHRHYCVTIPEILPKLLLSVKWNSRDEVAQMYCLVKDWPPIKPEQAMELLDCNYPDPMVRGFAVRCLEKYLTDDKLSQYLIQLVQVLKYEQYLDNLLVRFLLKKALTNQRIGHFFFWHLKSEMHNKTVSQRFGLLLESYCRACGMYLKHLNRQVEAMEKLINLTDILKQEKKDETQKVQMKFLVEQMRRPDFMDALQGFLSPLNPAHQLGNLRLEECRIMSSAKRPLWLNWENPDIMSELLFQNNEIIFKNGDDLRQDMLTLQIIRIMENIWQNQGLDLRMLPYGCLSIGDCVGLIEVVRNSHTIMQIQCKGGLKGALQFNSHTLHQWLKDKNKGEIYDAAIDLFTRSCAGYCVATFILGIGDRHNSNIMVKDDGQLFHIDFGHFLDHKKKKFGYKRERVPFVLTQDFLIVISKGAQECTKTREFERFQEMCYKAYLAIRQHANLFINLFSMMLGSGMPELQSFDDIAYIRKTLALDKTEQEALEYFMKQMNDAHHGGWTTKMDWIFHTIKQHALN
PI3Kalpha, sequence (P27986 whole entry partner, the tested form may be a part): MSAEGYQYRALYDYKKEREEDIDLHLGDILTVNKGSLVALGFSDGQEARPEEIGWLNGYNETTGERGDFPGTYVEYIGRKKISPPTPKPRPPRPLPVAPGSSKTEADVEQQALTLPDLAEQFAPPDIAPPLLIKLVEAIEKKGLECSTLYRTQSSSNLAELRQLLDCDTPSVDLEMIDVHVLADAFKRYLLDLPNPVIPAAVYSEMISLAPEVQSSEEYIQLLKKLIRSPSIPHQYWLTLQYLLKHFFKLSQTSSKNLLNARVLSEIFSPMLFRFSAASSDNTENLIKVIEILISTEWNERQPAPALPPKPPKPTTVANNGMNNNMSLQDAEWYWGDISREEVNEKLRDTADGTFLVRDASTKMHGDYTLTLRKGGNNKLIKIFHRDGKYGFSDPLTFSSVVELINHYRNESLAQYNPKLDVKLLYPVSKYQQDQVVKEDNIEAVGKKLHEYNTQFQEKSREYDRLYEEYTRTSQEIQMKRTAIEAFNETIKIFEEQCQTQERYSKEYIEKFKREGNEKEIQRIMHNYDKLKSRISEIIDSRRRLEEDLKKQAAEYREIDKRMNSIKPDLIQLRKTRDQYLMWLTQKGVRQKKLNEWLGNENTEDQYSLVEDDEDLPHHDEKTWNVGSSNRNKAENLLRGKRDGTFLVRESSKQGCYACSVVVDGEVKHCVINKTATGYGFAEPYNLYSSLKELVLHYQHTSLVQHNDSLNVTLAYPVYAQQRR
Description: (§1) The inhibitory effect of the compounds according to the invention was tested on various serine/threonine, tyrosine and lipid kinases in enzymatic assays. Recombinant human kinases such as, for example, Erk2, PI3Kalpha, -beta, -gamma, -delta, p38alpha, p38gamma, Jnk1, Jnk2 and others were used in this case, partly as full-length kinases, partly as shortened fragments, but at least consisting of the functional kinase domains. The commercial kinase proteins (Proqinase, Upstate) were used as recombinant fusion proteins with GST (glutathion-S-transferase) or His-Tag. Depending on the type of substrate, the various kinase reactions were quantified by means of suitable ALPHA™ beads (Perkin-Elmer).
(§2) The substance testing is described in detail hereinafter for the Erk assay.
(§3) a) MAPK-ALPHAs (e.g. Erk2): the test substance, 0.625 ng Erk2 (#14-173, Upstate), 10 μM ATP and 15 nM biotinylated MBP (myelin basic protein) substrate were incubated on a 384-well Optiplate (Perkin-Elmer) in a volume of 15 μl for 1 h in 25 mM Tris, 10 mM MgCl2, 0.1% Tween-20, 100 μM NaVO4, 2 mM DTT at pH 7.5. The kinase reaction was then stopped by adding 10 μl of the ALPHA bead mixes (10 μg/ml, #6760617/Perkin-Elmer) pre-incubated with anti-phospho MBP antibody (320 pM, #05-429/Upstate) in 25 mM Tris, 200 mM NaCl, 110 nM EDTA and 0.3% BSA and left to stand overnight. b) PI3K-ALPHAs (e.g. PI3Kalpha): the test substance, 1 ng PI3Kalpha (#14-602, Upstate), 100 μM ATP and 20 μM PIP2 substrate (#P4508, Echelon) were incubated on a 384-well Optiplate (Perkin-Elmer) for 1 h in 50 mM Hepes, 50 mM NaCl, 5 mM MgCl2, 0.05% Chaps, 5 mM DTT at pH 7.4. The kinase reaction was then stopped by adding ALPHA bead mixes (10 μg/ml, #6760603/Perkin-Elmer) pre-incubated with 1 nM GST:Grp1 fusion protein (Upstate) and 15 nM biotinylated PIP3 (#C-39B6/Echelon) in 50 mM Hepes, 50 mM NaCl, 50 mM EDTA and 0.1% BSA and left to stand overnight.
(§4) The fluorescence was detected the following morning in a Fusion™^aα-system (Perkin-Elmer).
(§5) The %-inhibition values per substance concentration were calculated by means of the following formula from the raw data determined in the Fusion™ ? :
(§6) Eight determinations were made for each control and two for the substance samples. The 0% control either contains no ATP or no substrate, the 100% control (fully active kinase) contains no test substance. The IC50 values were determined using GraphPadPrism.

p38alpha = p38alpha (Homo sapiens (Human), UniProt Q16539); assay: Cell-free kinase assay (ALPHA technology), p38alpha; type: biochemical; conditions: 10 μM ATP
p38alpha, sequence (Q16539 whole entry): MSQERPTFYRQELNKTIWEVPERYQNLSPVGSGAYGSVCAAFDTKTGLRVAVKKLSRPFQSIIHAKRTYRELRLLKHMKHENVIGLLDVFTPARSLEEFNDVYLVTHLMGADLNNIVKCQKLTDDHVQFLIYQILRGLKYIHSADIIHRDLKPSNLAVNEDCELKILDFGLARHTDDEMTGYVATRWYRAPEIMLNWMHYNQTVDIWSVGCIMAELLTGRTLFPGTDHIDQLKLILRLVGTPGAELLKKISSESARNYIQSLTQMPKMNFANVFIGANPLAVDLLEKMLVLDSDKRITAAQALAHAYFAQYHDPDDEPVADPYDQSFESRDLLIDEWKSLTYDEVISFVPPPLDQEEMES
Description: as §1, §2, §3, §4, §5, §6

Jnk1 + Jnk2 = assay: Cell-free kinase assay (ALPHA technology), Jnk1 + Jnk2; type: biochemical, human; conditions: 10 μM ATP
Description: as §1, §2, §3, §4, §5, §6

Erk2, sequence (P28482 2-360 limits assumed): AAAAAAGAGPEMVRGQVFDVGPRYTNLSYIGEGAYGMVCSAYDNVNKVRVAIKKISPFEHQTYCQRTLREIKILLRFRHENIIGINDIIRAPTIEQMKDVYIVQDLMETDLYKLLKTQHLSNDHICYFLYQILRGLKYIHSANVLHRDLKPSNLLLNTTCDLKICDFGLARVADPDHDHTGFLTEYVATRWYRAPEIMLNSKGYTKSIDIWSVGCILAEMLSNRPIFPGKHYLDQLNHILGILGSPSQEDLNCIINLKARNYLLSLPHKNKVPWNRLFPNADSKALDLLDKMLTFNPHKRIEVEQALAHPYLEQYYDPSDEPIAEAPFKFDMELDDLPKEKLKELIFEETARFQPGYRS

Molecule | melting point | IC50 (Erk2) | IC50 (PI3Kalpha) | IC50 (p38alpha) | IC50 (Jnk1 + Jnk2)
C=CCNC(=S)Nc1ccc2nc(-c3ccc(O)cc3)cnc2n1 [Compound 34, 1-allyl-3-[2-(4-hydroxy-phenyl)-pyrido[2,3-b]pyrazin-6-yl]-thiourea] | 260 °C (dec.) | – | – | – | –
C=CCNC(=S)Nc1ccc2nc(-c3ccc(O)cc3)c(-c3ccc(O)cc3)nc2n1 [Compound 32, 1-allyl-3-[2,3-bis-(4-hydroxy-phenyl)-pyrido[2,3-b]pyrazin-6-yl]-thiourea] | 270 °C (dec.) | – | – | – | –
CCNC(=O)Nc1ccc2ncc(-c3ccc(Cl)cc3OC)nc2n1 [Compound 171, 1-[3-(4-Chloro-2-methoxy-phenyl)-pyrido[2,3-b]pyrazin-6-yl]-3-ethyl-urea] | – | 0.084 µM | 3 µM | > 100 µM | 1.4 µM
CCNC(=O)Nc1ccc2ncc(Nc3ccnc(Cl)c3)nc2n1 [Compound 184, 1-[3-(2-Chloro-pyridin-4-ylamino)-pyrido[2,3-b]pyrazin-6-yl]-3-ethyl-urea] | – | > 100 µM | 0.133 µM | > 100 µM | 6.3 µM
COc1cc(-c2cnc3ccc(NC(=O)NCCCCO)nc3n2)ccc1O [Compound 168, 1-(4-Hydroxy-butyl)-3-[3-(4-hydroxy-3-methoxy-phenyl)-pyrido[2,3-b]pyrazin-6-yl]-urea] | – | 0.15 µM | 0.612 µM | > 100 µM | 2.5 µM
CCNC(=O)Nc1ccc2ncc(Nc3ccc(C)c(O)c3)nc2n1 [Compound 188, 1-Ethyl-3-[3-(3-hydroxy-4-methyl-phenylamino)-pyrido[2,3-b]pyrazin-6-yl]-urea] | – | > 100 µM | 2.8 µM | > 100 µM | > 31.6 µM
CCNC(=O)Nc1ccc2ncc(-c3ccc(OCCCN4CCOCC4)cc3)nc2n1 [Compound 148, 1-Ethyl-3-{3-[4-(3-morpholin-4-yl-propoxy)-phenyl]-pyrido[2,3-b]pyrazin-6-yl}-urea] | – | 1.8 µM | 1.4 µM | > 100 µM | 13.7 µM
CCNC(=O)Nc1ccc2ncc(Nc3cc(OC)cc(OC)c3)nc2n1 [Compound 180, 1-[3-(3,5-Dimethoxy-phenylamino)-pyrido[2,3-b]pyrazin-6-yl]-3-ethyl-urea] | – | 15.7 µM | 1.1 µM | > 100 µM | 8.6 µM
1-[3-(3,5-Dichloro-4-hydroxy-phenyl)-pyrido[2,3-b]pyrazin-6-yl]-3-ethyl-urea [Compound 186] | – | 0.223 µM | 3.8 µM | > 100 µM | 2.5 µM
CCNC(=O)Nc1ccc2ncc(Nc3ccc(OC)c(OC)c3)nc2n1 [Compound 187, 1-[3-(3,4-Dimethoxy-phenylamino)-pyrido[2,3-b]pyrazin-6-yl]-3-ethyl-urea] | – | 16.6 µM | 0.712 µM | > 31.6 µM | > 100 µM
CCNC(=O)Nc1ccc2ncc(-c3ccc(C#N)s3)nc2n1 [Compound 174, 1-[3-(5-Cyano-thiophen-2-yl)-pyrido[2,3-b]pyrazin-6-yl]-3-ethyl-urea] | – | 4.9 µM | 3 µM | > 31.6 µM | 4.6 µM
CCNC(=O)Nc1ccc2ncc(-c3ccc(O)cc3Cl)nc2n1 [Compound 170, 1-[3-(2-Chloro-4-hydroxy-phenyl)-pyrido[2,3-b]pyrazin-6-yl]-3-ethyl-urea] | – | 0.103 µM | 2.4 µM | > 31.6 µM | 1.1 µM
CCNC(=O)Nc1ccc2ncc(Nc3ccc(Cl)cc3)nc2n1 [Compound 159, 1-[3-(4-Chloroo-phenylamino)-pyrido-[2,3-b]pyrazin-6-yl]-3-ethyl-urea] | – | > 100 µM | 0.147 µM | > 100 µM | 12.6 µM

More lines, now with the values ahead:

melting point | IC50 (Erk2) | IC50 (PI3Kalpha) | IC50 (p38alpha) | IC50 (Jnk1 + Jnk2) | Molecule
233 to 234 °C | – | – | – | – | S=C(Nc1ccc2ncc(-c3ccccc3)nc2n1)NC1CC1 [Compound 11, 1-cyclopropyl-3-(3-phenyl-pyrido[2,3-b]pyrazin-6-yl)-thiourea]
160 to 161 °C (dec.) | – | – | – | – | C=CCNC(=S)Nc1ccc2ncc(-c3ccc(O)cc3)nc2n1.Cl
242 to 243 °C (dec.) | – | – | – | – | C=CCNC(=S)Nc1ccc2ncc(-c3ccc4ccccc4c3)nc2n1 [Compound 5, 1-allyl-3-(3-naphth-2-yl-pyrido[2,3-b]pyrazin-6-yl)-thiourea]
158 to 160 °C | – | – | – | – | O=C(Nc1ccc2ncc(-c3ccccc3)nc2n1)NC1CC1 [Compound 21, 1-cyclopropyl-3-(3-phenyl-pyrido[2,3-b]pyrazin-6-yl)-urea]
225 to 226 °C | – | – | – | – | Fc1ccc(NC(=S)Nc2ccc3ncc(-c4ccccc4)nc3n2)cc1 [Compound 14, 1-(4-fluoro-phenyl)-3-(3-phenyl-pyrido[2,3-b]pyrazin-6-yl)-thiourea]
230 to 232 °C | – | – | – | – | S=C(Nc1ccc2ncc(-c3ccccc3)nc2n1)NC1CCCCC1 [Compound 18, 1-cyclohexyl-3-(3-phenyl-pyrido[2,3-b]pyrazin-6-yl)-thiourea]
240 to 241 °C (dec.) | – | – | – | – | C=CCNC(=S)Nc1ccc2ncc(-c3ccc(OC)cc3)nc2n1 [Compound 6, 1-allyl-3-[3-(4-methoxy-phenyl)-pyrido[2,3-b]pyrazin-6-yl]-thiourea]
227 °C (dec.) | – | – | – | – | CC(C)(C)NC(=S)Nc1ccc2ncc(-c3ccccc3)nc2n1 [Compound 10, 1-tert.butyl-3-(3-phenyl-pyrido[2,3-b]pyrazin-6-yl)-thiourea]
205 °C (dec.) | – | – | – | – | C=CCNC(=S)Nc1ccc2ncc(-c3cccc(O)c3)nc2n1 [Compound 27, 1-allyl-3-[3-(3-hydroxy-phenyl)-pyrido[2,3-b]pyrazin-6-yl]-thiourea]
226 °C | – | – | – | – | O=C(NCCN1CCOCC1)Nc1ccc2ncc(-c3ccccc3)nc2n1 [Compound 17, 1-(2-Morpholin-4-yl-ethyl)-3-(3-phenyl-pyrido[2,3-b]pyrazin-6-yl)-urea]
232 to 233 °C | – | – | – | – | S=C(NCc1ccccc1)Nc1ccc2ncc(-c3ccccc3)nc2n1 [Compound 13, 1-benzyl-3-(3-phenyl-pyrido[2,3-b]pyrazin-6-yl)-thiourea]
223 to 224 °C | – | – | – | – | C=CCNC(=S)Nc1ccc2ncc(-c3ccc(C(=O)OCC)cc3)nc2n1 [Compound 26, 4-[6-(3-allyl-thioureido)-pyrido[2,3-b]pyrazin-3-yl]-benzoic acid ethyl ester]
250 °C (dec.) | – | – | – | – | O=C(NCCc1ccccc1)Nc1ccc2ncc(-c3ccccc3)nc2n1 [Compound 35, 1-Phenethyl-3-(3-phenyl-pyrido[2,3-b]pyrazin-6-yl)-urea]
– | 0.006 µM | 6.2 µM | > 100 µM | 5.5 µM | CCNC(=O)Nc1ccc2ncc(-c3ccc(O)cc3)nc2n1 [Compound 43, 1-Ethyl-3-[3-(4-hydroxy-phenyl)-pyrido[2,3-b]pyrazin-6-yl]-urea]
– | 1.9 µM | 5.3 µM | > 100 µM | 12.1 µM | CCNC(=O)Nc1ccc2ncc(-c3cccc(C(=O)O)c3)nc2n1 [Compound 152, 3-[6-(3-Ethyl-ureido)-pyrido[2,3-b]pyrazin-3-yl]-benzoic acid]
– | 0.104 µM | 1.5 µM | > 100 µM | 2.9 µM | CCNC(=O)Nc1ccc2ncc(-c3cccc(O)c3)nc2n1 [Compound 151, 1-Ethyl-3-[3-(3-hydroxy-phenyl)-pyrido[2,3-b]pyrazin-6-yl]-urea]
